Measurements from patent US7790899B2, “Synthesis of N-(4-fluorobenzyl)-N-(1-methylpiperidin-4-yl)-N′-(4-(2-methylpropyloxy)phenylmethyl)carbamide and its tartrate salt and crystalline forms” (ACADIA Pharmaceuticals, Inc., priority 2004, dated 2010).
Structures can show the parent of a compound that is named as a salt. Where two headings read alike, the source gives them in different places.

Experiments:
[1] = Particle size distribution; format: physicochemical
[2] = Stability test, exposure to humidity (open containers, 60° C., 75% relative humidity); format: physicochemical; settings: 1 week and 2 weeks
Procedure: (§1) HPLC: HPLC measurements were carried out with a HP LC1090M, Column Symmetry C18, 3.0·150 mm.
The compounds of Examples 3(b) (polymorph A), 25 (polymorph B), and 36 (polymorph C) were placed in open containers and exposed 1 week and 2 weeks at 60° C. and 75% relative humidity. In polymorph A, a water content of 2.8% was detected and the HPLC purity was 80%.

[3] = Stability of the crystal forms (general findings); format: physicochemical
[4] = Water absorption and behaviour on exposure to relative humidity; format: physicochemical
[5] = Stability test, thermal treatment (sealed ampoules, 100° C., HPLC purity); format: physicochemical; settings: 1 week
Procedure: as §1
The compounds of Examples 3(b) (polymorph A), 25 (polymorph B), and 36 (polymorph C) were placed in sealed ampoules and exposed for 1 week to 100° C. […] The products where analyzed by HPLC and the purity was detected to indicate chemical stability via decomposition.

[6] = Stability of crystalline Form C at 75% RH and 40° C.; format: physicochemical; set-up: key to Powder X-Ray Diffraction (PXRD): C = Conforms with Reference; settings: 40° C./75% RH
Procedure: (§2) A first batch of crystalline Form C was exposed to 60% RH (relative humidity) at 25° C. for 12 months and a second batch was exposed to 75% RH at 40° C. for 6 months. No changes in polymorphic purities were observed under all the conditions tested, and Form C was the only polymorph detected. The batches were tested for appearance, Total Drug Assay, Related Substances, moisture, and the presence of Impurity D. Appearance of the bulk drug substance was evaluated by visual inspection for color homogeneity, foreign material and texture. Total Drug Assay was determined on an HPLC system with UV detection at 226 nm. A Waters XTerra RP185 μm (4.6×250 mm) column was used at 30° C. The mobile phase was acetonitrile: 5 mM ammonium acetate, pH 10.0 (46:54 v/v). The injection volume aws 20 μL. The run time was 30 min with a flow rate of 1.0 mL/min. Related Substances were analyzed utilizing gradient reversed-phase HPLC with UV detection at 226 nm. A Waters Symmetry C183.5 μm, (150×4.6 mm) column was used at 35° C. Mobile phase A was water with 0.1% TFA and mobile phase B was acetonitrile with 0.1% TFA. The injection volume was 20 μL. The run time was 35 min with a flow rate of 1.0 mL/min. Related substances were quantitated by peak area percent. Moisture was determined with a 737 Karl Fischer Coulometric titrator. The apparatus was operated using Hydranal-Coulomat AG and Hydranal standard-0.1% water check solution-Coulomat AG.

[7] = Solubility statements in the description
[8] = Stability of crystalline Form C at 60% RH and 25° C.; format: physicochemical; set-up: key to Powder X-Ray Diffraction (PXRD): C = Conforms with Reference; settings: for Assay (Active Ingredient %) / Individual Related Substances (%) / Moisture, KF (%) / Powder X-Ray Diffraction (PXRD) / Product Appearance / Total Related Substances (%) / Impurity D: 25° C./60% RH
Procedure: as §2

[9] = Approximate solubility of the crystalline free base in solvents at room temperature; format: physicochemical

SMILES: CC(C)COc1ccc(CNC(=O)N(Cc2ccc(F)cc2)C2CCN(C)CC2)cc1 [Example 56, N-(4-fluorobenzyl)-N-(1-methylpiperidin-4-yl)-N′-(4-(2-methylpropyloxy)phenylmethyl)carbamide hemi-tartrate]
- diameter of about 10% of the particles [1]: ≤ 5 μm
- diameter of about 50% of the particles [1]: ≤ 18 μm
- diameter of about 90% of the particles [1]: ≤ 35 μm

SMILES: CC(C)COc1ccc(CNC(=O)N(Cc2ccc(F)cc2)C2CCN(C)CC2)cc1 [Example 60, N-(4-fluorobenzyl)-N-(1-methylpiperidin-4-yl)-N′-(4-(2-methylpropyloxy)phenylmethyl)carbamide tartrate]
- diameter of about 10% of the particles [1]: ≤ 9 μm
- diameter of about 50% of the particles [1]: ≤ 30 μm
- diameter of about 90% of the particles [1]: ≤ 55 μm

SMILES: CC(C)COc1ccc(CNC(=O)N(Cc2ccc(F)cc2)C2CCN(C)CC2)cc1.CC(C)COc1ccc(CNC(=O)N(Cc2ccc(F)cc2)C2CCN(C)CC2)cc1.O=C(O)C(O)C(O)C(=O)O [Form B, N-(4-fluorobenzyl)-N-(1-methylpiperidin-4-yl)-N′-(4-(2-methylpropyloxy)phenylmethyl)carbamide hemi-tartrate]
- Change of crystal form after exposure to humidity [2]: transformed to polymorph C
- HPLC purity after exposure to humidity ([2]; listed as polymorph B): 94.6%
- water content after exposure to humidity ([2]; listed as polymorph B): 1.9%
- Stability at ambient temperatures ([3]; ambient temperatures): stable
- Water uptake when exposed to high humidity ([4]; above 80% relative humidity): considerable water uptake
- Stability under ambient water partial pressures ([4]; relative humidities between 20% and 75%): sufficient stability
- HPLC purity after thermal treatment ([5]; listed as polymorph B): 28.3%

SMILES: CC(C)COc1ccc(CNC(=O)N(Cc2ccc(F)cc2)C2CCN(C)CC2)cc1 [Form C, N-(4-fluorobenzyl)-N-(1-methylpiperidin-4-yl)-N′-(4-(2-methylpropyloxy)phenylmethyl)carbamide hemi-tartrate]
- Change of crystal form after exposure to humidity [2]: remained unchanged
- HPLC purity after exposure to humidity [2]: 99.7%
- Assay (Active Ingredient %) ([6]; 0 M): 99.8%
- Individual Related Substances (%) ([6]; 0 M): 0.06%
- Moisture, KF (%) ([6]; 0 M): 0.3%
- Powder X-Ray Diffraction (PXRD) ([6]; 0 M): C
- Total Related Substances (%) ([6]; 0 M): 0.06%
- Assay (Active Ingredient %) ([6]; 1 M): 99.8%
- Individual Related Substances (%) ([6]; 1 M): 0.05%
- Moisture, KF (%) ([6]; 1 M): <0.1%
- Powder X-Ray Diffraction (PXRD) ([6]; 1 M): C
- Total Related Substances (%) ([6]; 1 M): 0.05%
- Assay (Active Ingredient %) ([6]; 3 M): 99.5%
- Individual Related Substances (%) ([6]; 3 M): <0.05%
- Moisture, KF (%) ([6]; 3 M): <0.1%
- Total Related Substances (%) ([6]; 3 M): <0.05%
- Assay (Active Ingredient %) ([6]; 6 M): 99.7%
- Individual Related Substances (%) ([6]; 6 M): 0.23%
- Moisture, KF (%) ([6]; 6 M): 0.1%
- Powder X-Ray Diffraction (PXRD) ([6]; 6 M): C
- Total Related Substances (%) ([6]; 6 M): 0.23%
- aqueous solubility ([7]; depends on the pH in aqueous environments): 50 to 100 mg/mL
- Solubility in water or aqueous systems (in words) [7]: very high
- Stability compared with all found crystal forms [3]: most stable form
- Assay (Active Ingredient %) ([8]; 0 M): 99.8%
- Individual Related Substances (%) ([8]; 0 M): 0.06%
- Moisture, KF (%) ([8]; 0 M): 0.3%
- Powder X-Ray Diffraction (PXRD) ([8]; 0 M): C
- Product Appearance ([8]; 0 M): Conforms
- Total Related Substances (%) ([8]; 0 M): 0.06%
- Assay (Active Ingredient %) ([8]; 1 M): 99.8%
- Individual Related Substances (%) ([8]; 1 M): 0.05%
- Moisture, KF (%) ([8]; 1 M): <0.1%
- Powder X-Ray Diffraction (PXRD) ([8]; 1 M): C
- Product Appearance ([8]; 1 M): Conforms
- Total Related Substances (%) ([8]; 1 M): 0.05%
- Assay (Active Ingredient %) ([8]; 3 M): 99.7%
- Individual Related Substances (%) ([8]; 3 M): <0.05%
- Moisture, KF (%) ([8]; 3 M): <0.1%
- Product Appearance ([8]; 3 M): Conforms
- Total Related Substances (%) ([8]; 3 M): <0.05%
- Assay (Active Ingredient %) ([8]; 6 M): 99.8%
- Individual Related Substances (%) ([8]; 6 M): 0.06%
- Moisture, KF (%) ([8]; 6 M): 0.2%
- Powder X-Ray Diffraction (PXRD) ([8]; 6 M): C
- Product Appearance ([8]; 6 M): Conforms
- Total Related Substances (%) ([8]; 6 M): <0.06%
- Assay (Active Ingredient %) ([8]; 9 M): 99.4%
- Impurity D ([8]; 9 M): 0.2
- Individual Related Substances (%) ([8]; 9 M): <0.05%
- Moisture, KF (%) ([8]; 9 M): <0.1%
- Powder X-Ray Diffraction (PXRD) ([8]; 9 M): C
- Product Appearance ([8]; 9 M): Conforms
- Total Related Substances (%) ([8]; 9 M): <0.05%
- Assay (Active Ingredient %) ([8]; 12 M): 99.1%
- Impurity D ([8]; 12 M): 0.2
- Individual Related Substances (%) ([8]; 12 M): 0.05%
- Moisture, KF (%) ([8]; 12 M): <0.1%
- Powder X-Ray Diffraction (PXRD) ([8]; 12 M): C
- Product Appearance ([8]; 12 M): Conforms
- Total Related Substances (%) ([8]; 12 M): 0.05%
- Changes in polymorphic purities ([8]; 60% RH at 25° C. for 12 months and 75% RH at 40° C. for 6 months): No changes
- Dynamic pour absorption experiments: water absorption [4]: does not absorb water
- Stability in an open container ([4]; 75% relative humidity): stable
- Deliquescence or hygroscopicity ([4]; about 95% relative humidity): no deliquescence or hygroscopicity
- Water absorption ([4]; at about 95% relative humidity): about 1%
- HPLC purity after thermal treatment [5]: 99.7%
- State of the material after thermal treatment [5]: substantially unchanged

SMILES: CC(C)COc1ccc(CNC(=O)N(Cc2ccc(F)cc2)C2CCN(C)CC2)cc1 [Form D, N-(4-fluorobenzyl)-N-(1-methylpiperidin-4-yl)-N′-(4-(2-methylpropyloxy)phenylmethyl)carbamide hemi-tartrate]
- Stability in an open container ([4]; 53% relative humidity): stable

SMILES: CC(C)COc1ccc(CNC(=O)N(Cc2ccc(F)cc2)C2CCN(C)CC2)cc1 [crystalline free base of formula I, N-(4-fluorobenzyl)-N-(1-methylpiperidin-4-yl)-N′-(4-(2-methylpropyloxy)phenylmethyl)carbamide]
- solubility ([9]; acetonitrile): <50 mg/mL
- solubility ([9]; ethyl acetate): <30 mg/mL
- solubility ([9]; organic solvent or mixture, 1,4-dioxane, read-out: Solubility): 140 mg/mL
- solubility ([9]; organic solvent or mixture, acetone, read-out: Solubility): 100 mg/mL
- solubility ([9]; organic solvent or mixture, dichloromethane, read-out: Solubility): > 500 mg/mL
- solubility ([9]; organic solvent or mixture, ethanol, read-out: Solubility): 260 mg/mL
- solubility ([9]; organic solvent or mixture, isopropanol, read-out: Solubility): 100 mg/mL
- solubility ([9]; organic solvent or mixture, methanol, read-out: Solubility): 170 mg/mL
- solubility ([9]; organic solvent or mixture, tetrahydrofuran, read-out: Solubility): > 250 mg/mL
- solubility ([9]; toluene): <70 mg/mL
- solubility ([9]; water, read-out: Solubility): < 4 mg/mL

SMILES: CC(C)COc1ccc(CNC(=O)N(Cc2ccc(F)cc2)C2CCN(C)CC2)cc1 [formula I, N-(4-fluorobenzyl)-N-(1-methylpiperidin-4-yl)-N′-(4-(2-methylpropyloxy)phenylmethyl)carbamide]
- Solubility in water or aqueous systems (in words) [7]: low solubility

SMILES: CC(C)COc1ccc(CNC(=O)N(Cc2ccc(F)cc2)C2CCN(C)CC2)cc1 [formula IV, N-(4-fluorobenzyl)-N-(1-methylpiperidin-4-yl)-N′-(4-(2-methylpropyloxy)phenylmethyl)carbamide hemi-tartrate]
- Solubility in water or aqueous systems (in words) [7]: very good solubility
